Source: patent US20130345215A1, “PYRAZOLOPYRIMIDONE AND PYRAZOLOPYRIDONE INHIBITORS OF TANKYRASE” (Genentech, Inc., priority 2012, published 2013)
Where two headings read alike, the source gives them in different places.

Key:
tankyrase 2 (TNKS2) = target: T1, tankyrase 2 (TNKS2) (Homo sapiens, UniProt Q9H2K2); test: μHTS-TNKS-IWR2 TR-FRET Binding Assay (Example 118), His6-TNKS2 substituted; conditions: procedure in Example 118 with His6-TNKS2
T1 construct: His6-tankyrase 2 (construct: 934-1166) (His6-TNKS2)
Procedure: (§1) μHTS-TNKS-IWR2 TR-FRET Binding Assay (10 μL/well in BD1536-well plate, a single point)
(§2) Reagents and Stock Solutions
Tankyrase 1 (TNKS1): 184.3 μM=5.2 mg/mL His6-TNKS1, MW=28.2 KDa (construct: 1088-1327, 1266M) in 20 mM Tris pH 8, 150 mM NaCl, 10% glycerol, and 0.5 mM TCEP. Alternatively, His6-tankyrase 2 (construct: 934-1166) (His6-TNKS2) or His6-PARP1 (full length) can be substituted for His6-TNKS 1.
(§3) Biotin-4-((1S,2R,6S,7R)-3,5-Dioxo-4-aza-tricyclo[5.2.1.0*2,6]dec-8-en-4-yl)-N-(4-methyl-quinolin-8-yl)-benzamide (Biotin-IWR2): 10 mM Biotin-IWR2 stock in DMSO, stored at −20° C.
Positive control: 10 mM 2-(4-Trifluoromethyl-phenyl)-3,5,7,8-tetrahydro-thiopyrano[4,3-d]pyrimidin-4-one (XAV939) in DMSO, stored at −20° C.
APC-anti-His Ab: 8.50 μM SL-APC, 8.26 μM anti-6His antibody-SureLight APC (Columia Bioscience, Catalog Number D3-1711, Lot Number N01010-AAH04)
Assay plate: BD 1536-well, clear/black plate (Catalog Number 353255)
(§4) Assay buffer 1a (AB1a) for TNKS dilution: 50 mM Tris, pH 7.4, 100 mM sodium chloride solution, 1 mM magnesium chloride solution, 1 mM DL-dithiothreitol solution, 0.2 mg/mL bovine serum albumin solution, 0.025% NP-40.
(§5) Assay buffer 1b (AB1b) for Biotin-IWR2 dilution: 50 mM Tris, pH 7.4, 100 mM sodium chloride solution, 1 mM magnesium chloride solution, 1 mM DL-dithiothreitol solution, 0.2 mg/mL bovine serum albumin solution, 0.05% NP-40
(§6) Assay buffer 1c (AB1c) for compound dilution: 50 mM Tris, pH 7.4, 100 mM sodium chloride solution, 1 mM magnesium chloride solution, 1 mM DL-dithiothreitol solution, 0.2 mg/mL bovine serum albumin solution
(§7) Assay buffer 2 (AB2) for Eu/APC: 50 mM Tris, pH 7.4, 100 mM sodium chloride solution, 1 mM magnesium chloride solution, 0.2 mg/mL bovine serum albumin solution
(§8) Reagent Stock Solution Preparation
Prepare Biotinylated IWR2 stock solution (3.33× stock) for TOTL and compound wells: 200 nM Biotin-IWR2 in 5% DMSO/AB1b buffer
(§9) Prepare BLANK well stock solution: 5% DMSO/AB1b buffer
Prepare POSITIVE CONTROL well stock solution (3.33× stock): 200 nM XAV939 in 200 nM Biotin-IWR2/5% DMSO/AB1b buffer
(§10) Prepare TNKS 1 stock solution (5× stock): 300 nM TNKS in AB1a buffer. (Alternatively, use TNKS2 or PARP1 stock solutions.)
Prepare Eu/APC stock solution (5× stock): 3.5 nM Eu-SA/50 nM APC-His6Ab in AB2 buffer.
Add 25 μL/well 1.5% DMSO/AB1c buffer in each compound well to the compound concentration at 74 μM in 8.8% DMSO/AB1c buffer or in the 2 μL DMSO CONTROL wells (BLANK, TOTAL and POSITIVE wells) in the compound plate. Transfer 3 μL/well of above solution (solution 1,2,3) to an empty assay plate (BD1536-well plate) as follows: • TOTAL and cpd wells: Solution 1 (Biotin-IWR2): • BLANK wells: Solution 2 (No Biotin-IWR2): • POSITIVE CONTROL wells: Solution 3 (Biotin-IWR2+XAV939)
(§11) Transfer 3 μL/well of the above diluted compound solutions or compound dilution buffer to the above assay plate. Add 2 μL/well of 300 nM TNKS stock solution (4) to every well in the above assay plate. Centrifuge the assay plate at 2100 rpm for 2 min. Incubate the assay plate at 26° C. for 30 minutes. Add 2 μL/well 3.5 nMEu/50 nM APC solution (5) to every well in the above assay plate. Centrifuge the assay plate at 2100 rpm for 2 min. Incubate the assay plate at 26° C. for 60 min. Read the assay plate immediately at excitation wavelength of 330 nm and emission wavelength of 615 and 665 nM in time resolved fluorescence mode.
XAV939 (+ve control): 60 nM at ˜70% Inhibition
General Library compounds: 22.23 μM in 4% DMSO

Tankyrase 1 (TNKS1) = target: T2, Tankyrase 1 (TNKS1) (Homo sapiens, UniProt O95271); test: μHTS-TNKS-IWR2 TR-FRET Binding Assay (Example 118), His6-TNKS1
T2 construct: His6-TNKS1, MW=28.2 KDa (construct: 1088-1327, 1266M)
Procedure: as §1, §2, §3
(XAV939) in DMSO, stored at −20° C.
as §4, §5, §6, §7, §8, §9, §10
Transfer 3 μL/well of above solution (solution 1,2,3) to an empty assay plate (BD1536-well plate) as follows: • TOTAL and cpd wells: Solution 1 (Biotin-IWR2): • BLANK wells: Solution 2 (No Biotin-IWR2): • POSITIVE CONTROL wells: Solution 3 (Biotin-IWR2+XAV939)
as §11, with “min.” for “min. Read the assay plate immediately at excitation wavelength of 330 nm and emission wavelength of 615 and 665 nM in time resolved fluorescence mode.”

T2 sequence (O95271 1088-1327): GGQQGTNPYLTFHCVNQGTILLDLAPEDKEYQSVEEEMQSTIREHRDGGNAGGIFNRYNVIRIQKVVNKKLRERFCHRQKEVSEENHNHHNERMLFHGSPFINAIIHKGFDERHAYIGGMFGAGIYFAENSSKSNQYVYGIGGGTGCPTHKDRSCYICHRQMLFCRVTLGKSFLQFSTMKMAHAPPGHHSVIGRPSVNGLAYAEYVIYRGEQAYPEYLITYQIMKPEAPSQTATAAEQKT
T1 sequence (Q9H2K2 934-1166): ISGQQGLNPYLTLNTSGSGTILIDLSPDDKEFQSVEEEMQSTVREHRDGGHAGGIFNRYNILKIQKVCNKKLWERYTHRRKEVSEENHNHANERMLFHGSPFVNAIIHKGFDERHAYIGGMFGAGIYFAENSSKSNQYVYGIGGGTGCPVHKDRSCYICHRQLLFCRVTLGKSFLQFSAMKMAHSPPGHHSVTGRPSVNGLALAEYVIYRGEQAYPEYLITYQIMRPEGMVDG

| Compound | IC50 (tankyrase 2 (TNKS2)) [nM] | IC50 (Tankyrase 1 (TNKS1)) [nM] | IC50 (Tankyrase 1 (TNKS1); Compounds I-1 to I-58, procedure in Example 118 (TR-FRET, Biotin-IWR2 60 nM, TNKS 60 nM), read-out: TNKS1 (IC50)) [nM] |
| --- | --- | --- | --- |
| 6-[4-(3 5-dichloro-4- pyridyl)piperazin-1-yl]-1- methyl-5H-pyrazolo[4 3- c]pyridin-4-one [Compound I-47] | 29.1 |  | 26 |
| Cn1ncc2c(=O)[nH]c(N3CCN(c4ccc(F)cc4F)CC3)cc21 [Compound I-16, 6-[4-(2 4-difluorophenyl)piperazin-1-yl]-1-methyl-5H-pyrazolo[4 3-c]pyridin-4-one] | 47.4 | 48 |  |
| Cn1ncc2c(=O)[nH]c(N3CCC(C#N)(c4ccccc4)CC3)nc21 [Compound I-24, 1-(1-methyl-4-oxo-5H-pyrazolo[3 4-d]pyrimidin-6-yl)-4-phenyl-piperidine-4-carbonitrile] | 33.3 | 27 |  |
| Cn1ncc2c(=O)[nH]c(N3CCN(c4ccc(F)cc4S(C)(=O)=O)CC3)nc21 [Compound I-22, 6-[4-(4-fluoro-2-methylsulfonyl-phenyl)piperazin-1-yl]-1-methyl-5H-pyrazolo[3 4-d]pyrimidin-4-one] | 55 | 44 |  |
| Cn1ncc2c(=O)[nH]c(N3CCN(c4c(F)cccc4F)CC3)nc21 [Compound I-2, 6-[4-(2 6-difluorophenyl)piperazin-1-yl]-1-methyl-5H-pyrazolo[3 4-d]pyrimidin-4-one] | 18.7 | 10.9 |  |
| Cn1ncc2c(=O)[nH]c(N3CCN(c4ncccc4C(F)(F)F)CC3)cc21 [Compound I-26, 1-methyl-6-[4-[3-(trifluoromethyl)-2-pyridyl]piperazin-1-yl]-5H-pyrazolo[4 3-c]pyridin-4-one] | 30.4 | 29 |  |
| Cn1ncc2c(=O)[nH]c(-c3ccc(C(F)(F)F)nc3)cc21 [Compound I-29, 1-methyl-6-[6-(trifluoromethyl)-3-pyridyl]-5H-pyrazolo[4 3-c]pyridin-4-one] | 104 | 151 |  |
| Cn1ncc2c(=O)[nH]c(N3CCC(c4ccc(C(F)(F)F)cc4)CC3)nc21 [Compound I-6, 1-methyl-6-[4-[4-(trifluoromethyl)phenyl]-1-piperidyl]-5H-pyrazolo[3 4-d]pyrimidin-4-one] | 68.3 | 66 |  |
| Cn1ncc2c(=O)[nH]c(N3CCN(c4ccc(F)cc4S(C)(=O)=O)CC3)cc21 [Compound I-25, 6-[4-(4-fluoro-2-methylsulfonyl-phenyl)piperazin-1-yl]-1-methyl-5H-pyrazolo[4 3-c]pyridin-4-one] | 45.1 | 44 |  |
| Cn1ncc2c(=O)[nH]c(N3CCN(c4ccc(C#N)cc4F)CC3)nc21 [Compound I-28, 3-fluoro-4-[4-(1-methyl-4-oxo-5H-pyrazolo[3 4-d]pyrimidin-6-yl)piperazin-1-yl]benzonitrile] | 76.5 | 51 |  |

The next lines start with results.

| IC50 (tankyrase 2 (TNKS2)) [nM] | IC50 (Tankyrase 1 (TNKS1)) [nM] | Compound | IC50 (Tankyrase 1 (TNKS1); Compounds I-1 to I-58, procedure in Example 118 (TR-FRET, Biotin-IWR2 60 nM, TNKS 60 nM), read-out: TNKS1 (IC50)) [nM] |
| --- | --- | --- | --- |
| 598 | 504 | Cn1ncc2c(=O)[nH]c(N3CCN(c4nccs4)CC3)nc21 [Compound I-38, 1-methyl-6-(4-thiazol-2-ylpiperazin-1-yl)-5H-pyrazolo[3 4-d]pyrimidin-4-one] |  |
| 94.5 | 69 | Cn1ncc2c(=O)[nH]c(N3CCC(O)(c4ccccn4)CC3)nc21 [Compound I-35, 6-[4-hydroxy-4-(2-pyridyl)-1-piperidyl)-1-methyl-5H-pyrazolo[3 4-d]pyrimidin-1-one] |  |
| 28.9 | 29 | Cn1ncc2c(=O)[nH]c(N3CCN(c4c(Cl)cncc4Cl)CC3)nc21 [Compound I-34, 6-[4-(3 5-dichloro-4-pyridyl)piperazin-1-yl]-1-methyl-5H-pyrazolo[3 4-d]pyrimidin-4-one] |  |
| 135 | 107 | CCOC(=O)c1ccc(N2CCN(c3nc4c(cnn4C)c(=O)[nH]3)CC2)cc1 [Compound I-41, ethyl 4-[4-(1-methyl-4-oxo-5H-pyrazolo[3 4-d]pyrimidin-6-yl)piperazin-1-yl]benzoate] |  |
| 19.3 | 26 | COCCOc1cc(F)c(N2CCN(c3cc4c(cnn4C)c(=O)[nH]3)CC2)c(F)c1 [Compound I-53, 6-[4-[2 6-difluoro-4-(2-methoxyethoxy)phenyl]piperazin-1-yl]-1-methyl-5H-pyrazolo[4 3-c]pyridin-4-one] |  |
| 93.9 | 61 | Cn1ncc2c(=O)[nH]c(N3CCN(c4ccnc(Cl)c4Cl)CC3)nc21 [Compound I-46, 6-[4-(2 3-dichloro-4-pyridyl)piperazin-1-yl]-1-methyl-5H-pyrazolo[3 4-d]pyrimidin-4-one] |  |
| 39.4 | 41 | Cn1ncc2c(=O)[nH]c(N3CCN(c4ccc(C(=O)O)cc4F)CC3)nc21 [Compound I-40, 3-fluoro-4-[4-(1-methyl-4-oxo-5H-pyrazolo[3 4-d]pyrimidin-6-yl)piperazin-1-yl]benzoic acid] |  |
| 234 | 13 | COCCOc1ccc(N2CCN(c3nc4c(cnn4C)c(=O)[nH]3)CC2)c(F)c1 [Compound I-30, 6-[4-[2-fluoro-4-(2-methoxyethoxy)phenyl]piperazin-1-yl]-1-methyl-5H-pyrazolo[3 4-d]pyrimidin-4-one] |  |
| 147 | 114 | COCCOc1cc(F)cc(N2CCN(c3nc4c(cnn4C)c(=O)[nH]3)CC2)c1 [Compound I-55, 6-[4-[3-fluoro-5-(2-methoxyethoxy)phenyl]piperazin-1-yl]-1-methyl-5H-pyrazolo[3 4-d]pyrimidin-4-one] |  |
| 55.3 | 47 | COc1cccnc1N1CCN(c2nc3c(cnn3C)c(=O)[nH]2)CC1 [Compound I-43, 6-[4-(3-methoxy-2-pyridyl)piperazin-1-yl]-1-methyl-5H-pyrazolo[3 4-d]pyrimidin-4-one] |  |
| 49.2 | 34 | Cn1ncc2c(=O)[nH]c(N3CCN(c4ccc(S(N)(=O)=O)cc4F)CC3)nc21 [Compound I-48, 3-fluoro-4-[4-(1-methyl-4-oxo-5H-pyrazolo[3 4-d]pyrimidin-6-yl)piperazin-1-yl]benzenesulfonamide] |  |
| 47.1 |  | COCCOc1cc(F)c(F)c(N2CCN(c3nc4c(cnn4C)c(=O)[nH]3)CC2)c1 [Compound I-58] |  |
